Entries after “also recorded” stand apart in the source; their conditions may differ.
How the values were obtained:
ob/ob mice [1] = assay: Hypoglycemic effect of the combination of F7 with Glibenclamide; assay type: in vivo; details: Glibenclamide 25 mg/kg oral, with or without F7 50 mg/kg oral pretreatment for 10 days
Description: (§1) Genetic spontaneous diabetes ob/ob mice were purchased from Jackson (USA), and maintained in a SPF facility (temperature: 22-24° C., humidity: 45-80%, illumination: 150-300 Lx, 12/12-hour light/dark cycle). Fasting blood glucose was determined daily for 3 days continuously when the mice were 7 weeks old. The mice were grouped into the pretreatment group of Compound F7 and non-pretreatment group (16 animals per group) according to the results determined. The groups were administered orally with compound F7 (50 mg/kg) or a solution of 0.1% Tween 80 respectively, once daily for 10 days. The pretreatment group and the non-pretreatment group were divided into two subsets (8 animals per subset) respectively, and subcutaneously injected with insulin (0.6 U/kg) or orally administered with Glibenclamide (25 mg/kg) respectively. Then, blood glucose levels were measured at different time points and the percentage of change in blood glucose level was calculated.

ob/ob mice [2] = assay: Hypoglycemic effect of the combination of F7 with insulin; assay type: in vivo; details: insulin 0.6 U/kg s.c., with or without F7 50 mg/kg oral pretreatment for 10 days
Description: as §1

[3] = test system: Acetyl CoA Carboxylase (ACC); assay: Phosphorylation of ACC in HepG2 cell (Western blot); assay type: cell-based, Human; details: HepG2, 50 uM, 5 minutes, P<0.01 or P<0.05
Description: (§2) Human hepatoma carcinoma cell strain (HepG2, purchased from the cell bank of Shanghai Institute of Cell Biology of Chinese Academy) was used. The Human hepatoma carcinoma cells were passaged by 0.1% pancreatin/0.02% EDTA digestion, and cultured in a incubator at 37° C. using MEM culture medium containing 10% FBS, under 5% CO2/95%.
(§3) HepG2 cells were cultured in 6-well plates for 48 hours until 70%-80% confluence. Serum starvation was started by changing medium with MEM containing 0.5% BSA. After starvation for 6 hours, cells were treated with the compounds (final concentration of 50 uM, containing 0.25% DMSO) for 5 minutes. The culture medium was discarded, and cells were harvested and washed for twice with pre-cooled PBS. The washing liquid was discarded, and any residual PBS was blotted dry. DMSO without heptacyclic compounds was used as control.
(§4) Extraction of total cellular protein: 150 μl/well homogenizing buffer (137 mM NaCl, 2.7 mM KCl, 1 mM MgCl2, 0.5 mM Na3VO4, 1% Triton X-100, 10% Glycerol, 20 mM Tris-HCl pH 7.8, 1 ug/ml Leupeptin, 0.2 mM PMSF, 10 mM NaF, 1 ug/ml Aprotinin, 1 mM EDTA, 1 mM DTT, 5 mM Sodium pyrophosphate, 1 mM Benzamidine) was added. Cells were collected into a 1.5 ml centrifuge tube using cell scraper. Cells were homogenized using sonicator (5 W of power) for 2 times (3 seconds per time), and shaken on a shaker for 1 hour. Supernatant (i.e., total cellular protein) was collected by centrifuging at 14000 rpm for 15 min at 4° C., and stored at −70° C. until use. After the protein concentration was determined by Bradford method, the supernatant was formulated as the loading sample with final concentration of 0.6 mg/ml. The whole preparation process was performed at 4° C.
(§5) Protein Electrophoresis: After being treated at 95° C. for 5 min, the loading sample was loaded (15 μg protein/lane). The protein was separated on 7.5% SDS-acrylamide gel for 1-2 hours under the voltage of 80-120 V.
(§6) Electrotransferring the protein and blocking the membrane: After electrophoresis was finished, the protein was transferred to PVDF membrane using semi-dry transferring slot based on 0.8 mA/cm^2 membrane area under the electric current of 80 mA for 2 hours. After that, the membrane was shaken for 2 hours with 7.5% skim milk/TTBS to block the membrane.
(§7) Antigen-antibody reaction: After the blocking process was finished, the membrane was incubated with primary antibody (antibody against phosphorylated ACC (P-ACC) and antibody against phosphorylated AMPK (P-AMPK), all purchased from Cell signaling (USA), with the working concentration of 1:1000) overnight at 4° C. The membrane was removed, and the primary antibody was recovered. The membrane was washed 5 times, each for 10 min in TTBS. The membrane was shaken for 2 hours with the secondary antibody (horseradish peroxidase-conjugated goat-anti-rabbit IgG antibody, purchased from Bio-rad (USA), with the working concentration of 1:5000) at room temperature. The secondary antibody was discarded. The membrane was washed 5 times, each for 10 min in TTBS in order to remove the unbound secondary antibody.
(§8) ECL exposure and development: Luminescent agents, ECL 1, 2, were mixed homogeneously, and incubated with the membrane for 3-5 min. The membrane was removed, wrapped in preservative film, and transferred into dark room for exposure. After exposure with X-film, the film was developed, washed, recorded and conserved.
(§9) Semi-quantitative analysis was performed through optical density scan using computer image analysis system. Grey level of the protein expression was calculated. The target grey level was divided by the grey level of internal standard, and a histogram was plotted, taking the normal group as 1 unit.

[4] = test system: AMP-Activated Protein Kinase (AMPK); assay: Phosphorylation of AMPK in HepG2 cell (Western blot); assay type: cell-based, Human; details: HepG2, 50 uM, 5 minutes, P<0.01 or P<0.05
Description: as §2, §3, §4, §5, §6, §7, §8, §9

3T3-L1 adipocytes = assay: Glucose uptake in 3T3-L1 adipocytes (3H-labelled 2-deoxyglucose); assay type: cell-based; details: for Glucose uptake, Mean, Compound + Insulin Group (Control Group = 1.000): 10 μM, 2 h incubation, with insulin, relative to control without insulin; for fold induction at 10 µM: Mus musculus, 3T3-L1, 2 h incubation, baseline (without insulin), relative to control, read-out: Glucose uptake, Mean, Compound Group (Control Group = 1.000)
Description: The effect of the compounds on baseline or insulin-stimulated glucose uptake was evaluated, using the model of glucose uptake in 3T3-L1 adipocytes.
Adipose tissue is the target of glucose metabolism in vivo. The sensitivity for insulin and availability of glucose in adipose tissues are tightly associated with the insulin resistance. The transportation of glucose into adipocytes is a rate-limiting step for the glucose metabolism, and also an important indicator for evaluating the sensitivity for insulin in adipose tissue. 3T3-L1 is a kind of pre-adipocyte, and can become adipocyte after differentiated completely. Therefore, 3T3-L1 is a desirable model for the glucose transport.
Pre-adipocyte, 3T3-L1 was induced to differentiate under certain conditions. After 3T3-L1 differentiated into adipocytes, the compounds of interest with different concentrations and DMSO (used as control) can be added and incubated with the adipocytes for different periods, then the glucose uptake could be determined. For evaluating the ability for a compound to stimulate glucose uptake, the baseline and insulin-induced glucose uptake were determined, and the increase in baseline and insulin-induced glucose uptake upon treatment of the compounds as compared with control group (with 0.1% DMSO) is calculated, based on the ^3H-labelled 2-deoxyglucose inside the cells.
3T3-L1 cells purchased from Karolinska Institute (Sweden) were cultured in DMEM medium containing 10% fetal calf serum at 37° C., under 5% CO2. The cells were passaged every 3-4 days. The cells were inoculated into 12-well plate. Upon confluence, culture medium containing 0.5 mM 3-isobutyl-1-methylxanthine, 0.25 μM dexamethasone and 5 μg/ml insulin was added and cultured for 3 days. Then, the culture medium was replaced by a medium containing 5 μg/ml insulin and further cultured for 3 days. The insulin was removed, and the cells had differentiated completely into mature adipocytes after 2 days which could be used to determine the glucose uptake.
23 compounds chosen by the inventors were added into the culture medium of adipocytes in a dose of 10 μM. After incubation for 2 h, the effect of the compounds on glucose uptake in 3T3-L1 cells was observed. Culture medium without compounds was used as negative control. The control group only supplemented with insulin and the experiment group supplemented with compounds plus insulin were also employed to observe the effect of the compounds on glucose uptake.

ob/ob mice [5] = assay: Fasting blood glucose in ob/ob mice, several heptacyclic compounds, 8 days; assay type: in vivo; details: for Fasting blood glucose change in words: dosed continuously for 8 days, P<0.05
Description: Genetic spontaneous diabetes ob/ob mice were purchased from Jackson (USA), and maintained in a SPF facility (temperature: 22-24° C., humidity: 45-80%, illumination: 150-300 Lx, 12/12-hour light/dark cycle). Fasting blood glucose was determined for 3 days continuously when the mice were 7 weeks old. The mice were grouped into the treatment group and the control group (6 animals per group) according to the results determined. The treatment groups were administered orally with compound E9, G0 and F7 (psoromic acid) (100 mg/kg), and the control group was administered orally with a solution of 0.1% Tween 80 (blank control), once daily for 8 days. Fasting blood glucose in mice was determined at the end of experiment.

[6] = oral 100 mg/kg once daily, after 8 days treatment

| Compound | Level of phosphorylation for ACC protein versus DMSO control [3] | Level of phosphorylation for AMPK protein versus DMSO control [4] | Glucose uptake, Mean, Compound + Insulin Group (Control Group = 1.000) (3T3-L1 adipocytes) | fold induction at 10 µM (3T3-L1 adipocytes) | Fasting Blood Glucose (ob/ob mice [5]; before administration) | Fasting blood glucose change in words (ob/ob mice [5]) | Fasting Blood Glucose (ob/ob mice [5]; [6]) | other results |
| --- | --- | --- | --- | --- | --- | --- | --- | --- |
| COc1ccc(Cl)cc1C(=O)NCCc1ccc(S(=O)(=O)NC(=O)NC2CCCCC2)cc1 [Glibenclamide] |  |  |  |  |  |  |  | The percentage of change in blood glucose level (ob/ob mice [1]; 1 h): 90.2 ± 7.3%; The percentage of change in blood glucose level (ob/ob mice [1]; 2 h): 76.7 ± 10.2%; The percentage of change in blood glucose level (ob/ob mice [1]; 3 h): 68.0 ± 7.3% |
| Insulin |  |  |  |  |  |  |  | The percentage of change in blood glucose level (ob/ob mice [2]; 15 minutes): 113.9 ± 8.3%; The percentage of change in blood glucose level (ob/ob mice [2]; 40 minutes): 96.3 ± 18.0%; The percentage of change in blood glucose level (ob/ob mice [2]; 90 minutes): 90.6 ± 14.7%; The percentage of change in blood glucose level (ob/ob mice [2]; 120 minutes): 101.6 ± 11.2% |
| CCOCc1c(O)c(C(=O)O)c(C)c2c1OC(=O)c1c(C)cc(O)c(C=O)c1O2 [Compound G0, 9-Ethoxymethyl-4-formyl-3,8-dihydroxy-1,6-dimethyl-11-oxo-11H-dibenzo[b,e][1,4]dioxepine-7-carboxylic acid] | improved significantly | increased significantly | 1.297 | 1.22 | 11.95 ± 1.49 mM | reduced statistically significant | 8.07 ± 1.07 mM |  |
| COc1cc(C(=O)O)c2c(c1C)OC(=O)c1c(C)cc(O)c(CO)c1O2 [Compound E9, 3-Hydroxy-4-hydroxymethyl-8-methoxy-1,9-dimethyl-11-oxo-11H-dibenzo[b,e][1,4]dioxepine-6-carboxylic acid] | improved significantly | significant up-regulation; also recorded: increased significantly | 2.965 | 1.1 | 11.99 ± 1.48 mM | reduced statistically significant | 8.68 ± 1.32 mM |  |
| CN(C)C(=N)N=C(N)N [Metformin, reference compound] |  |  |  |  | 12.27 ± 2.69 mM |  | 8.13 ± 2.76 mM |  |
| COc1cc(C(=O)O)c2c(c1C)OC(=O)c1c(C)cc(O)c(CNCCN3CCOCC3)c1O2 [Compound C7, 3-Hydroxy-8-methoxy-1,9-dimethyl-4-[(2-morpholin-4-yl-ethylamino)-methyl]-11-oxo-11H-dibenzo[b,e][1,4]dioxepine-6-carboxylic acid] | improved significantly | increased significantly | 3.610 | 1.22 |  |  |  |  |
